Experimental data taken from patent US7202265B2, “Indolinone combinatorial libraries and related products and methods for the treatment of disease” (Sugen, Inc., priority 1997, dated 2007).

Test system: human MET
Experiment: MET biochemical kinase assay
Design: concentration or dose not given beside the values
Excerpt: (d) MET Biochemical Kinase Assay
A met biochemical kinase assay may be performed for met generally as described above for other kinases by substituting that or the other kinases. In particular, ELISA plates are coated with goat anti-rabbit Fc antibodies, which are used to capture commercially available (from Santa Cruz Biotechnology) rabbit polyclonal antibodies to the cytoplasmic domain of human MET. […] The chimeric receptors, or MET, from these lysates are captured on the antibody coated plates. After washing away extraneous proteins, test compounds are added and an in vitro kinase assay is performed by addition of an appropriate kinase buffer (containing ATP, divalent metal ions, etc.). Incorporation of phosphate into the captured receptors is detected with an anti-phosphotyrosine antibody conjugate with horse radish peroxidase using TMB as a substrate for calorimetric detection.

Compound	Met Kinase % Inhibition
CCN(CC)c1ccc(C=C2C(=O)Nc3ccc(S(=O)(=O)NC)cc32)c(O)c1 [10734/D05]	55.0%
Cc1c(Br)ccc2c1C(=Cc1cc(Cl)c(OCc3ccccc3)c(C(C)(C)C)c1)C(=O)N2 [10732/C10]	43.0%
Cc1c(Br)ccc2c1C(=Cc1cccn1-c1ccc(Cl)cc1)C(=O)N2 [10724/C09]	5.3%
O=C1Nc2ccc(S(=O)(=O)Nc3ccc(C(F)(F)F)cc3)cc2C1=Cc1ccc(C(=O)O)cc1 [10722/E05]	73.0%
O=C1Nc2ccc(S(=O)(=O)Nc3ccc(C(F)(F)F)cc3)cc2C1=Cc1ccc(N2CCCC2)cc1 [10729/E10]	7.5%
O=C1Nc2ccc(CCCl)cc2C1=Cc1ccccc1Br [10723/G07]	43.0%
CC(C)c1ccc2occ(C=C3C(=O)Nc4ccc(I)cc43)c(=O)c2c1 [10731/B05]	86.0%
CC(C)c1cc(C=C2C(=O)Nc3ccc(S(=O)(=O)Nc4ccc(C(F)(F)F)cc4)cc32)cc(C(C)C)c1Oc1ccccc1 [10732/E04]	8.2%
O=C1Nc2ccc(S(=O)(=O)Nc3ccc(C(F)(F)F)cc3)cc2C1=Cc1c(F)cc(F)cc1F [10720/E02]	18.0%
O=C1Nc2ccc(CCCl)cc2C1=Cc1ccc(O)cc1 [10719/G07]	24.0%
Cc1cc(C=C2C(=O)Nc3c(Br)cc(Br)cc32)sc1C [10721/A04]	85.0%
CNS(=O)(=O)c1ccc2c(c1)C(=Cc1cc3ccccc3nc1Cl)C(=O)N2 [10730/D08]	−13.6%
CCCCN(CCCC)c1ccc(C=C2C(=O)Nc3ccc(CCCl)cc32)cc1 [10722/G10]	27.0%
CCOC(=O)c1cc(C=C2C(=O)Nc3ccc(Br)c(C)c32)oc1C [10718/C06]	3.9%
CNS(=O)(=O)c1ccc2c(c1)C(=Cc1ccc(Br)cc1)C(=O)N2 [10717/D08]	16.0%
COc1ccc(C=C2C(=O)Nc3ccc(S(=O)(=O)N4CCOCC4)cc32)c(OC)c1OC [10730/F02]	−6.2%
CNS(=O)(=O)c1ccc2c(c1)C(=Cc1cc(Br)cc(Br)c1O)C(=O)N2 [10734/D07]	92.0%
CNS(=O)(=O)c1ccc2c(c1)C(=Cc1ccc(O)c(C)c1O)C(=O)N2 [10718/D09]	9.9%
COc1ccc2[nH]cc(C=C3C(=O)Nc4ccc(S(=O)(=O)Nc5ccc(C(F)(F)F)cc5)cc43)c2c1 [10731/E09]	27.0%

Compound	Met Kinase % Inhibition
CNS(=O)(=O)c1ccc2c(c1)C(=Cc1cc(C(C)C)c(O)c(C(C)C)c1)C(=O)N2 [10724/D06]	23.0%
COc1cc(Br)cc(C=C2C(=O)Nc3ccc(CCCl)cc32)c1O [10733/G08]	79.0%
Cc1csc2sc(C=C3C(=O)Nc4ccc(I)cc43)c(C)c12 [10724/B11]	43.0%
O=C1Nc2ccc(S(=O)(=O)Nc3ccc(C(F)(F)F)cc3)cc2C1=Cc1ncc[nH]1 [10720/E11]	−10.4%
O=C1Nc2ccc(S(=O)(=O)N3CCOCC3)cc2C1=Cc1cc(O)c(O)c(Br)c1 [10723/F04]	94.0%
Cc1c(Br)ccc2c1C(=Cc1ccccc1Sc1ccc(Cl)cc1)C(=O)N2 [10727/C05]	8.9%
CCOC(=O)CCc1c(C(=O)OCC)[nH]c(C=C2C(=O)Nc3ccc(Br)c(C)c32)c1CC(=O)OCC [10718/C05]	8.7%
Cc1cc(C=C2C(=O)Nc3ccc(S(=O)(=O)N4CCOCC4)cc32)cc(C)c1OCc1ccccc1 [10733/F07]	−16.4%
Cn1cccc1C=C1C(=O)Nc2ccc(I)cc21 [10717/B04]	70.0%
Cc1c(Br)ccc2c1C(=Cc1cccn1C)C(=O)N2 [10717/C04]	25.0%
CCc1ccc(C=C2C(=O)Nc3ccc(I)cc32)o1 [10724/B10]	95.0%
O=C1Nc2c(Br)cc(Br)cc2C1=Cc1ccc(F)cc1Cl [10719/A09]	47.0%
O=C1Nc2ccc(I)cc2C1=CC(c1cccs1)C(F)(F)F (stereo not drawn) [10732/B02]	78.0%
Cc1c(Br)ccc2c1C(=Cc1sc3scc(C)c3c1C)C(=O)N2 [10724/C11]	4.9%
Cc1c(Br)ccc2c1C(=Cc1ccc(O)cc1)C(=O)N2 [10719/C07]	7.7%
CCOc1cccc(C=C2C(=O)Nc3ccc(S(=O)(=O)NC)cc32)c1O [10734/D02]	46.0%
O=C1Nc2ccc(S(=O)(=O)N3CCOCC3)cc2C1=Cc1ccccc1Sc1ccc(Cl)cc1 [10727/F05]	6.0%
Cc1c(Br)ccc2c1C(=Cc1ccc(Br)o1)C(=O)N2 [10726/C05]	58.0%
Cc1ccc(C=C2C(=O)Nc3ccc(I)cc32)s1 [10717/B07]	90.0%

Compound	Met Kinase % Inhibition
CCOc1ccccc1C=C1C(=O)Nc2ccc(S(=O)(=O)Nc3ccc(C(F)(F)F)cc3)cc21 [10717/E02]	24.0%
N#Cc1cccc(C=C2C(=O)Nc3ccc(S(=O)(=O)Nc4ccc(C(F)(F)F)cc4)cc32)c1 [10727/E08]	27.0%
CCc1cc(CC)c(C=C2C(=O)Nc3ccc(S(=O)(=O)N4CCOCC4)cc32)[nH]1 [10727/F03]	22.0%
Cc1c(Br)ccc2c1C(=Cc1ccc(O)c(C(C)(C)C)c1)C(=O)N2 [10721/C09]	−4.7%
COc1cc(OC)c(C=C2C(=O)Nc3ccc(S(=O)(=O)N4CCOCC4)cc32)c(OC)c1 [10719/F06]	−22.0%
CNS(=O)(=O)c1ccc2c(c1)C(=Cc1ccc(F)cc1Cl)C(=O)N2 [10719/D09]	13.0%
Cn1c(C=C2C(=O)Nc3ccc(CCCl)cc32)nc2ccccc21 [10721/G02]	7.9%
CNS(=O)(=O)c1ccc2c(c1)C(=Cc1cc(OC)ccc1O)C(=O)N2 [10720/D10]	51.0%
O=C1Nc2c(Br)cc(Br)cc2C1=Cc1cc2ccccc2nc1Cl [10730/A08]	69.0%
O=C1Nc2ccc(I)cc2C1=Cc1cc(C(F)(F)F)ccc1F [10728/B08]	77.0%
COc1c(C)cc(C=C2C(=O)Nc3ccc(Br)c(C)c32)cc1C [10733/C06]	4.1%
COc1c(C(C)C)cc(C=C2C(=O)Nc3ccc(Br)c(C)c32)cc1C(C)C [10732/C03]	14.0%
O=C1Nc2ccc(CCCl)cc2C1=Cc1ccccc1Sc1ccc(Cl)cc1 [10727/G05]	7.1%
CCOC(=O)c1cc(C=C2C(=O)Nc3ccc(CCCl)cc32)oc1C [10718/G06]	61.0%
Cc1ccsc1C=C1C(=O)Nc2ccc(I)cc21 [10729/B05]	51.0%
C=C(C)C1CC=C(C=C2C(=O)Nc3ccc(S(=O)(=O)N4CCOCC4)cc32)CC1 (stereo not drawn) [10731/F04]	17.0%
Cc1ccc(C=C2C(=O)Nc3ccc(S(=O)(=O)Nc4ccc(C(F)(F)F)cc4)cc32)o1 [10725/E04]	59.0%
O=C1Nc2ccc(S(=O)(=O)N3CCOCC3)cc2C1=Cc1cc(Cl)cc(Br)c1O [10727/F04]	92.0%
CC(C)(C)c1cc(C=C2C(=O)Nc3ccc(S(=O)(=O)Nc4ccc(C(F)(F)F)cc4)cc32)cc(C(C)(C)C)c1OCc1ccccc1 [10733/E05]	2.9%
